In patent US9782368B2, “Use of N,N-bis-2-mercaptoethyl isophthalamide” (EMERAMED LIMITED, priority 2014, dated 2017):

Columns and labels:
COPD = assay: Treatment of patient with COPD; assay type: in vivo, human
Method: A retired person residing in the USA, who had been medically diagnosed with COPD several years earlier, regularly experienced coughing fits two to four times in any 24 hour period, beginning at any hour of the day or night and lasting from about 40 to 75 minutes. As a consequence of these coughing fits, the patient's breathing was shallow, their throat irritated, their voice was raspy, their energy levels very low and their quality of life very poor.

[1] = test system: cigarette smoke (CS)-induced airway disease; assay: In vivo smoking mouse study I (14-day cigarette smoke exposure); set-up: species or system BALB/c mice
Method: A mouse model of cigarette smoke (CS)-induced airway disease was developed, in which four groups of BALB/c mice were exposed to CS (nose-only) using a cigarette smoking machine that produces a combination of side-stream and mainstream smoke from filtered research cigarettes, 7 days a week over 2 weeks.
As part of a 14-day dose-finding study, three groups of mice were administered NMBI subcutaneously (5, 30 or 150 mg/kg) before each exposure to CS. Inflammatory cell counts in bronchoalveolar lavage (BAL), flow cytometry (FACS) analysis and cytokine analysis in BAL were carried out.
Female BALB/c mice (Harlem laboratories, Netherlands) were used in this study. They were housed in plastic cages with absorbent bedding material and were maintained on a 12 hour daylight cycle. Food and water were provided ad libitum. Their care and the experimental protocols were approved by the Regional Ethics Committee on Animal Experiments in Umeå. Mice were 12 weeks of age when the cigarette exposure protocol started.
Animals were subjected to inhaled CS (both side-stream and main-stream smoke). The CS exposure was performed in a microprocessor-controlled cigarette smoking machine (TE-10, Teague Enterprises, CA, USA) that produces smoke from research cigarettes (1R5F, University of Kentucky, Lexington, Ky., USA).
Cigarettes are automatically loaded into a wheel, lit, puffed and ejected. Each cigarette was smoked for 10 minutes and the airflow through the machine was set to 12 L/min. Cigarettes were stored at −20° C. until needed. Mice were subjected to 4 cigarettes every 10 minutes×3 (i.e. 12 cigarettes over 30 minutes), once a day, 7 days a week, over two weeks. The smoke was transferred into a smoke tower (EMMS, UK) providing equal and simultaneous exposure to the CS.
Mice were placed into plastic chambers and subjected to CS by “nose-only” inhalation. Control mice were handled every day and breathed room-air, but were not taken out of their cages.
Accordingly, the 5 treatment groups are as follows: • 1. Daily exposure to clean air (Placebo Group) • 2. Daily exposure to CS (CS-Exposed Placebo Group) • 3. Daily exposure to CS; treated with NBMI at a 5 mg/kg dose (NBMI 5 mg/kg Group) • 4. Daily exposure to CS; treated with NBMI at a 30 mg/kg dose (NBMI 30 mg/kg Group) • 5. Daily exposure to CS; treated with NBMI at a 150 mg/kg dose (NBMI 150 mg/kg Group)
On Day 15, mice were exsanguinated and subjected to bronchoalveolar lavage (BAL). The lungs were lavaged four times via the tracheal tube with a total volume of 1 mL+3×1 mL Ca^2+/Mg^2+ free Hanks' balanced salt solution (HBSS, Sigma-Aldrich, Steinheim, Germany).
The BAL fluid was then immediately centrifuged (10 minutes, 4° C., 1750 rpm). After removing the supernatant until further analysis, the cell pellet was re-suspended and then diluted with 0.5 mL PBS. Leukocytes were counted manually in a hemocytometer so that 20,000 cells could be loaded and centrifuged using a Cytospin® centrifuge (Shandon® cytospin 3 cyto-centrifuge, cell preparation system).
Cytocentrifuged preparations were stained with May-Grünwald-Giemsa reagent and differential cell counts of pulmonary inflammatory cells (macrophages, neutrophils, lymphocytes, and eosinophils) were made using standard morphological criteria and counting 300 cells per cytospin preparation.
Inflammatory mediators in BAL and serum were analyzed for the presence of interleukin (IL)-1α, IL-1β, IL-2, IL-3, IL-4, IL-5, IL-6, IL-9, IL-10, IL-12p40, IL-12p70, IL-13, IL17, Eotaxin, G-CSF, INFγ, GM-CSF, KC, MCP-1, MIP-1α, MIP-Iβ, RANTES and TNFα. All cytokine analyses were performed simultaneously with a multiplex kit (BioPlex™ Pro Mouse Cytokine 23-plex panel) according to the manufacturer's instructions (Bio-Rad) and analyzed on a Bio-Plex™ system (Luminex Bio-Plex™ 200 System, Bio-Rad, Hercules, Calif.).
Leukocytes from BAL were analyzed with flow cytometry using a BD FACSort™ (Becton Dickinson, San Jose, Calif.). […]

[2] = by the eighth day, 100 mg capsule three times daily

For `O=C(NCCS)c1cccc(C(=O)NCCS)c1` [NBMI, N,N-bis-2-mercaptoethyl isophthalamide], the “symptoms of COPD” value (COPD; 100 mg capsule three times daily for eight days, one patient) was “marked improvement in symptoms”, the breathing (COPD; [2]) was “significantly improved breathing” and the coughing fits (COPD; [2]) was “no coughing fits”. For the same compound, the “MIP-1α levels in BAL vs CS-Exposed Placebo Group” value ([1]; 5 mg/kg s.c., p<0.05) was “lowered”, the “IL-10 level in serum” value ([1]; 30 mg/kg s.c.) was “increased levels” and the “Eotaxin level in serum vs CS-Exposed Placebo Group” value ([1]; 150 mg/kg s.c.) was “significantly lowered levels”. The “IL-1β level in serum vs CS-Exposed Placebo Group” value ([1]; 150 mg/kg s.c.) was “significantly lowered levels”, the “IL-3 level in serum vs CS-Exposed Placebo Group” value ([1]; 150 mg/kg s.c.) was “significantly lowered levels” and the “IL-6 level in serum vs CS-Exposed Placebo Group” value ([1]; 150 mg/kg s.c.) was “significantly lowered levels”. The “MIP-1α level in serum vs CS-Exposed Placebo Group” value ([1]; 150 mg/kg s.c.) was “significantly lowered levels”, the “RANTES level in serum vs CS-Exposed Placebo Group” value ([1]; 150 mg/kg s.c.) was “significantly lowered levels” and the “wounds at injection site” value ([1]; 150 mg/kg s.c., 14 days) was “established wounds in the neck”. For the same compound, the ulceration ([1]; 5 and 30 mg/kg s.c., 14 days) was “no signs of ulceration”, the “weight change from Day 1 to Day 15” value ([1]; CS-exposed, regardless of dose of NBMI) was “lost weight significantly” and the final weight ([1]; Day 15, 5 mg/kg s.c., CS-exposed, vs CS-exposed 20.3±0.3 g, p<0.05) was 19.5 ± 0.3 g. The “neutrophils in BAL vs mice just exposed to CS” value ([1]; Day 15, 30 mg/kg s.c.) was “significantly lower numbers of neutrophils”, the “neutrophils in BAL vs mice just exposed to CS” value ([1]; Day 15, 150 mg/kg s.c.) was “significantly lower numbers of neutrophils” and the “CD4 cells and CD8 cells in BAL fluid” value ([1]; all groups (5, 30, 150 mg/kg)) was “no significant differences”.
